Here are results for four compounds from US20190105260A1, “COMPOSITIONS AND METHODS TO PROMOTE WOUND HEALING” (The Regents of the University of California, priority 2016, published 2019).

For data set [1] the following is noted: cited from earlier work.
For data set [2], the system named is Db/Db female mice, diabetic model of impaired wound healing. As to the kind of experiment: In vivo splinted full-thickness excisional wound model, re-epithelialization analysis. Also noted: species or system mouse. To be noted: daily topical 0.2% fluoxetine or 0.01% timolol; day 12. The method, then: Panel B: Histomorphometric analysis of wounds. Representative histology sections for each group were chosen. Following euthanasia of animals, wounds were excised, biopsied and bisected. Wound tissue was fixed in paraformaldehyde for 12-16 hours and then paraffin embedded. Serial 5 μm sections were obtained from the center of the wound and the section with the largest wound bed (as defined by distance between hair follicles) was stained with hemotoxylin and eosin. Images were taken using 10× objective on a Keyance microscope. Panels C-D: Re-epithelialization was determined on sections created as in panel B. Image J analysis software was utilized to divide the re-epithelialized tissue (distance from hair follicle to remaining wound) by the entire original wound surface (as defined as distance between hair follicles). Panel D provides the distribution of data depicted in Panel C. P values were derived using a 2-tailed t-test.
13 week-old Db/Db female mice underwent full-thickness excisional biopsies with 8 mm punch biopsies. Wounds were splinted to prevent contraction. At day 12, animals were sacrificed and wounds were harvested to assess re-epithelialization. Representative histology sections for each group were chosen. Following euthanasia of animals, wounds were excised, biopsied and bisected. Wound tissue was fixed in paraformaldehyde for 12-16 hours and then paraffin embedded. Serial […] sections were obtained from the center of the wound and the section with the largest wound bed (as defined by distance between subcutaneous fat tissue) was stained with hemotoxylin and eosin. Images were taken using 10× objective on a Keyance microscope. (A) Re-epithelialization was determined on sections created. Image J analysis software was utilized to divide the re-epithelialized tissue by the entire original wound surface. (B) Percent of wounds at different stages of re-epithelialization was quantified. Data represented as Mean±SEM. P values were derived using a 2-tailed t-test. N=5/group.
13 week-old Db/Db female mice underwent full-thickness excisional wounding with 8 mm punch biopsy tool. All wounds were splinted to prevent contraction. […] At day 11, animals were sacrificed and wounds were harvested to assess re-epithelialization. Representative histology sections for each group were chosen. Following euthanasia of animals, wounds were excised, biopsied and bisected. Wound tissue was fixed in paraformaldehyde for 12-16 hours and then paraffin embedded. Serial […] sections were obtained from the center of the wound and the section with the largest wound bed (as defined by distance between subcutaneous fat tissue) was stained with hemotoxylin and eosin. Images were taken using 10× objective on a Keyance microscope. Re-epithelialization was determined on sections created. Image J analysis software was utilized to divide the re-epithelialized tissue by the entire original wound surface. Data represented as Mean±SEM. N=5/group.
Diabetic status (blood glucose >300 mg/dl) was confirmed in female Db/Db mice at age 11 weeks. At age 13 weeks, mice underwent hair removal and synchronization of follicle cycling through depilation and shaving. Synchronization was confirmed based on lack of skin pigmentation in included mice. 1 day after synchronization, 13-week-old Db/Db female mice underwent full-thickness excisional wounding using a splinted model as described. Briefly, 8 mm punch biopsies were used to make full-thickness excisional wounds. […]

The subject of data set [3] is bone marrow-derived macrophages (BMDMs), M2 polarization. The data set is described as follows: In vitro macrophage polarization (RT-PCR, flow cytometry). To be noted: added to fluoxetine; 1 μM Ketanserin, 100 nM NAN-190; 24 hours. It is filed as cell-based, mouse. The method, then: Bone marrow described macrophages from wild-type C57/B6J mice were harvested and cultured under polarizing conditions towards M0 (no polarization; normal culture medium), M1 (using LPS and IFNγ) or M2 (using IL-4 and IL-13). […] M2 activation status was assessed using RT-PCR (normalized to HSP90) for CD206, Ym-1 and Arg-1. M1 activation status was assessed using TNFα (A, B). C: At day 7 of macrophage maturation, adherent bone marrow derived monocytes in culture were identified with macrophage markers (CD11b and F4/80) using flow cytometry. After 24 hours, CD206 expression was identified in treated group (C). Results were then quantified and reported (D). Data presented as average±SEM. ** p<0.01.
Wild type C57BL/6 male and female mice were used. Bone marrow-derived (BMD) cells were isolated from mouse femurs and tibias. ACK solution (Thermo Fisher catalog 50-983-220) was used for 5 minutes at 37° C. to lyse red blood cells. BMD macrophages (BMDMs) were matured with (20 ng/mL) M-CSF (R&D) for 7 days. On day 7, BMDM phenotype was confirmed with flow cytometry by CD11b and F4/80 markers (Biolegend). Following maturation, BMDMs were either polarized towards M1 lineage with 10 ng/ml LPS (Sigma Aldrich) and 100 ng/ml IFN-g (R&D) or M2 lineage with 20 ng/ml IL-4 (PeproTech) and IL-13 (R&D) in cRPMI (1×RPMI (Cellgro), 10% FBS, 1× sodium pyruvate (GIBCO), 1× penicillin/streptomycin (GIBCO) at 37° C. for 24 hours. Non-polarized BMDMs and M1-polarized BMDMs were used as experimental controls for polarization procedure. M2-polarized BMDMs were co-treated with either PBS or FLX and/or 100 nM NAN-190 or 1 μM Ketanserin. Cells were either collected after 4 hours by scraping and stored in buffer RLT (Qiagen) at −80° C. or were read with flow cytometry after 24 hours and data were appropriately compensated and analyzed by FlowJo.
RT-PCR was performed using PowerUp SYBR Green Master Mix (Thermo/Applied Biosystems). Data was analyzed using the ΔΔCt method and normalized using geometric mean of the housekeeping genes (GAPDH, Hsp90, 18S rRNA). Fold change is shown relative to control groups.
For orientation: Flow cytometry measures light scatter and fluorescence of single cells or particles in a stream.

As for `CC(C)(C)NCC(O)COc1cccc2c1CC(O)C(O)C2` (stereo not shown) [Nadolol], the lipid solubility entry in data set [1] is reported as “low”.
Turning to `CC(C)(C)NC[C@H](O)COc1nsnc1N1CCOCC1` [timolol], the “re-epithelialization compared to PEG vehicle control” value in data set [2] is reported as “increased”.
Regarding `COc1ccccc1N1CCN(CCCCN2C(=O)c3ccccc3C2=O)CC1` [NAN190], in data set [3], the “effect on fluoxetine-enhanced M2 polarization (CD206+ cells, flow cytometry)” value is on record as “reversed”.
Same read-out and setting: then `O=C(c1ccc(F)cc1)C1CCN(CCn2c(=O)[nH]c3ccccc3c2=O)CC1` [Ketanserin], with “reversed”.
